Test results as given in patent US12102672B2, “Immunogenic sequences from a phage tail length tape measure protein, bacteria expressing the same and their use in treating a cancer” (INSTITUT GUSTAVE ROUSSY, priority 2017, dated 2024).
“Also recorded” adds a separate entry of the source. Where no end group is shown, it is not given here.

Columns and labels:
[1] = system: MCA205 cells with PSMB4 GSFARFRNI knock-in; test: Growth of Psmb4 knock-in MCA205 tumors under CTX +/- E. hirae 13144; type: in vivo, mice; details: L→F exchange in position 3, versus WT MCA205
splenic CD8+ T cells = test: IFNγ ELISpot recall assay of splenic CD8+ T cells with DCs pulsed with heat-inactivated bacteria or peptides; type: cell-based, mice; details: for TC1 response against TMP1 in mice gavaged with the strain (IFNγ ELISpot): Example 12, FIG. 27E; for recall responses to TMP1, TMP2 and Group7 after in vivo immunization with the strain: Example 3, FIG. 13E
Procedure: FIG. 9. Experimental immunization protocols to elucidate the immunogenicity of EH peptides. […] 5 days after the first oral gavage, mice are treated with CTX. One week post-CTX, CD8+ T cells are isolated from spleen. These CD8+ T cells are incubated with dendritic cells (DCs) pulsed with 20 μg/ml of peptides (during 1 hour) or with heat-inactivated bacteria (during 6 hours). Inactivation of bacteria consists in incubation at 65° C. during 2 hours. After 24 hours of culture, ELIspot of IFNγ is performed.
FIG. 10. Cross-reactivity between the two E. hirae 708 and 13144 species for CTL splenic reactivity. Number of IFNγ spot representing IFNγ-secreting CD8+ T cells after co-culture with DCs pre-incubated with or without heat-inactivated bacteria (708, 13144, EH17 and L. plantarum).
FIG. 13. Peptides from group 7 containing the TMP1 and TMP2 epitopes activate CD8+ T cells from spleen of mice immunized against E. hirae 13144. Number of IFNγ spot, representing IFNγ-secreting CD8+ T cells, after incubation with DCs pulsed with 13 different group of peptide (Table 6). Just group n° 1 (A) and group n° 7 (B) are shown. (C, E) Number of IFNγ spot, representing IFNγ-secreting CD8+ T cells, after incubation with DCs pulsed with 4 peptides belong to group n° 7 (in table 7). (D) Sequence alignment of TMP1 and TMP2 of EH10815 (SEQ ID Nos: 228 and 229 respectively) compared to EH13144 (fragments of SEQ ID NO: 1) at the level of immunogenic peptides. Amino acid sequence […] corresponds to SEQ ID No: 13. Amino acid sequence […] corresponds to SEQ ID No: 217. Amino acid sequence […] corresponds to SEQ ID Nos: 14. Amino acid sequence AlIEFIKGL corresponds to SEQ ID No: 218. (E) In vitro reactivity of splenic CTL in a recall response to TMP1 and TMP2 as well as Group7 after in vivo immunization with other strains of EH.
(§1) A and C. Experimental setting. […] D-E. Ex vivo recall assays. […] Each dot represents one mouse.

MCA-205 sarcoma [2] = test: MCA-205 sarcoma growth in FMT-treated mice, CTX plus oral gavage with E. hirae strains; type: in vivo; details: for Anti-tumor effect: summary of the characteristics of the strains, with CTX, MCA205 sarcoma; for boost of CTX tumoricidal activity (MCA-205 tumor growth): dysbiotic FMT from BC patient, 3 cycles CTX 100 mg/kg, oral gavage 1.10^9 bacteria; for antitumor effect together with CTX (summary statements): MCA205 tumor model together with CTX
Procedure: FIG. 1. Experimental setting. (A) Mice are treated with broad spectrum antibiotics (streptomycin, colistin, ampicillin and vancomycine) for 3 days before performing Fecal Microbiota Transplantation (FMT). 14 days post-FMT, MCA-205 sarcoma cell lines are inoculated in the right flank of mice (8.10^5 cells per mice). […] (B) Non FMT-treated SPF mice are used as control.
FIG. 2. Dysbiosis by FMT BC patient 1: Effectiveness of E. hirae 13144 to restore CTX-mediated antitumor effects. […] (C) Tumor growth curves of MCA-205 sarcoma in FMT-treated mice after oral gavage with strain E. hirae 13144 or NaCl as control. 2 independent experiments are depicted. (D) Overall survival of FMT-treated, MCA-205 sarcoma bearing mice treated with CTX or NaCl after oral gavage with strain E. hirae 13144. A typical survival curve is depicted for six mice per group. (E) Concatenated data of tumor sizes at day 21 post-CTX from 2 independent experiments are shown.
FIG. 3. […] (C) Tumor growth curves of MCA-205 sarcoma in FMT-treated mice after oral gavage with strain E. hirae 13144 or NaCl as control. 2 independent experiments are depicted. (D) Concatenated data of tumor sizes at day 21 post-CTX from 2 independent experiments are shown.
FIG. 4. […] Tumor growth curves of MCA-205 sarcoma in FMT-treated mice after oral gavage with strain E. hirae 13144 (A), IGR1 (B) or NaCl as control. A typical curve is depicted for six mice per group. (C) Concatenated data of tumor sizes at day 17 post-CTX from 1-2 independent experiments are shown. (D). Comparaison of various strains of E. hirae for their capacity to control tumor growth. […] EH10815 fails to work and that may be related to a mutation residing in TMP2 (see below FIG. 13B).
FIG. 5. […] (A) Tumor surface of MCA-205 sarcoma in FMT-treated mice after oral gavage with strain E. hirae 13144, IGR4, IGR7, Actinomycetes spp (Ao) and injected with 3 cycles of CTX (C) vs NaCl (N). Each dot is one mouse/tumor. (B) Tumor growth curves of MCA-205 sarcoma in SPF mice of the best group, means+SEM of tumor sizes at each time point and tumor sizes at sacrifice (C: CTX). Each dot is one mouse/tumor. Anova statistics indicating significant differences between CTX and the triple combination. (C) Tumor surface of MCA-205 sarcoma in FMT-treated mice after oral gavage with strains EH13144, IGR1, IGR11, Barnesiella or Akkermansia and injected with 3 cycles of CTX. Bacterial strains are used alive (V) or pasteurized (P). For pasteurization, bacteria are incubated 30 min at 70° C. and frozen at −80° C. at least 6 hours.
FIG. 6. […] Tumor growth curves of MCA-205 sarcoma in FMT-treated mice after oral gavage with strain E. hirae 13144 alive (A), pasteurized (B) or NaCl as control. A typical curve is depicted for six mice per group. (C) Concatenated data of tumor sizes at day 17 post-CTX from 3 independent experiments are shown.

MCA-205 sarcoma [3] = test: MCA205 sarcoma growth in antibiotic-treated SPF C57BL/6 mice, CTX plus oral gavage with bacteria; type: in vivo; details: ATB 3 days, CTX 100 mg/kg x3, weekly oral gavages, FIG. 27B
Procedure: as §1
A-B. Prophylactic vaccinations. […] C-D. Therapeutic settings.
Mice were treated during 3 days with an antibiotic solution (ATB) containing ampicillin (1 mg/ml), streptomycin (5 mg/ml), colistin (1 mg/ml) (Sigma-Aldrich) and vancomycin (0.25 mg/ml) added in the sterile drinking water of mice. Antibiotic activity was confirmed by cultivating fecal pellets resuspended in BHI+15% glycerol at 0.1 g/ml on COS (BD Columbia Agar with 5% Sheep Blood) plates for 48 h at 37° C. in aerobic and anaerobic conditions. In the context of bacterial transplantation experiments, mice received 3 days of ATB before undergoing bacterial transplantation the next day by oral gavage using animal feeding needles.
Syngeneic C57BL/6 mice were implanted with 0.8×10^6 MCA-205 WT sarcoma cells subcutaneously and treated intraperitoneally (i.p.) when tumors reached 20 to 35 mm^2 in size with CTX (100 mg/kg). Depending on the experimental setting, mice were injected once or 3 times at 1-week interval. Tumor size was routinely monitored every 3 days by means of a caliper.
Enterococcus hirae 13144 were originally isolated from spleens of SPF mice treated with CTX in our laboratory.

pTh17 cells = test: Induction of pTh17 cells in secondary lymphoid organs of CTX-treated animals; type: in vivo
Source text: The reasons for these differences were however unknown, and the inventors pursued their research to identify the factor(s) responsible for the immunogenic properties of the murine strain EH13144 and the human clones IGR4, IGR7 and IGR11, in order to derive new molecules or microorganisms useful in the treatment of cancer.

[4] = system: IFNg producing CD8^+ T (Tc1) cells; details: naïve mice; cited from earlier work
BM-DC = test: IL-1B and IL-12 production by BM-DC; type: cell-based; details: data not shown
[5] = system: TMP1-specific CD8+ T cells; details: FIG. 27H
[6] = system: CD8+ T cells from HLA-A02*01 healthy volunteers; test: IFNγ ELISpot of CD8+ T cells from HLA-A2 healthy volunteers stimulated with TMP epitopes; type: cell-based, human; details: Example 7, FIG. 24B
[7] = target: fluorescent H-2K^b/[…] (SEQ ID No: 13) tetrameric complex (mouse; Enterococcus hirae 13144 (39.2 kb prophage, TMP)) (UniProt P01901); test: flow cytometry with the fluorescent H-2K^b/… tetramer

Compound: O=P1(N(CCCl)CCCl)NCCCO1 (centres unmarked) [CTX, cyclophosphamide, reference compound]
- anticancer effect on PSMB4 knock-in (GSFARFRNI) MCA205 tumors [1]: not interfering

Compound: AMIEFIQGL
- recognition of peptides by memory EH13144-induced Tc1 cells (IFNγ ELISpot) (splenic CD8+ T cells; Example 3, FIG. 13/32, DCs pulsed with 20 μg/ml peptides): highly recognized

Compound: Enterococcus hirae 13344 [EH17 (13344), reference compound]
- Anti-tumor effect (MCA-205 sarcoma [2]): No
- restoration of antibiotic-perturbed anticancer effects of CTX (MCA205 growth) (MCA-205 sarcoma [3]): reduced anticancer effect
- memory Tc1 immune response (IFNγ spots) to BM-DC infected with EH isolates (splenic CD8+ T cells; Example 2, FIG. 10, splenic CD8+ T cells after gavage + CTX, ELISPOT at 24 hrs): failed to do so
- TC1 response against TMP1 in mice gavaged with the strain (IFNγ ELISpot) (splenic CD8+ T cells): unable to do so
- capacity to induce pTh17 cells in secondary lymphoid organs (pTh17 cells): did not
- immunogenic and oncomicrobiotic properties of the isolate [4]: no immunogenic nor oncomicrobiotic properties

Compound: Enterococcus hirae ATCC9790 [10815 (ATCC9790), reference compound]
- boost of CTX tumoricidal activity (MCA-205 tumor growth) (MCA-205 sarcoma [2]): failed to efficiently boost CTX tumoricidal activity
- boost of CTX tumoricidal activity (MCA-205 tumor growth) (MCA-205 sarcoma [2]; listed as EH10815): did not mediate antitumor effects; also recorded: fails to work
- Anti-tumor effect (MCA-205 sarcoma [2]): No
- restoration of antibiotic-perturbed anticancer effects of CTX (MCA205 growth) (MCA-205 sarcoma [3]): reduced anticancer effect
- recall responses to TMP1, TMP2 and Group7 after in vivo immunization with the strain (splenic CD8+ T cells): does not induce recall responses
- TC1 response against TMP1 in mice gavaged with the strain (IFNγ ELISpot) (splenic CD8+ T cells): unable to do so

Compound: Enterococcus hirae IGR1 [IGR 1]
- boost of CTX tumoricidal activity (MCA-205 tumor growth) (MCA-205 sarcoma [2]): not immunogenic; also recorded: failed to efficiently boost CTX tumoricidal activity
- Anti-tumor effect (MCA-205 sarcoma [2]): No
- IL-1B and IL-12 production by BM-DC (BM-DC): as effective as EH13144

Compound: Enterococcus hirae IGR10 [IGR 10]
- boost of CTX tumoricidal activity (MCA-205 tumor growth) (MCA-205 sarcoma [2]): failed to efficiently boost CTX tumoricidal activity
- Anti-tumor effect (MCA-205 sarcoma [2]): No

Compound: Enterococcus hirae strain IGR4 [IGR 4]
- antitumor effect together with CTX (summary statements) (MCA-205 sarcoma [2]): effective at synergizing with CTX
- boost of CTX tumoricidal activity (MCA-205 tumor growth) (MCA-205 sarcoma [2]): also immunogenic
- boost of CTX tumoricidal activity (MCA-205 tumor growth) (MCA-205 sarcoma [2]; listed as EH IGR 4): efficacy comparable to EH 13144
- Anti-tumor effect (MCA-205 sarcoma [2]): Yes

Compound: Enterococcus hirae strain IGR7 [IGR 7]
- antitumor effect together with CTX (summary statements) (MCA-205 sarcoma [2]): proved immunogenic
- antitumor effect together with CTX (summary statements) (MCA-205 sarcoma [2]; listed as clone IGR7): effective at synergizing with CTX
- boost of CTX tumoricidal activity (MCA-205 tumor growth) (MCA-205 sarcoma [2]): also immunogenic
- boost of CTX tumoricidal activity (MCA-205 tumor growth) (MCA-205 sarcoma [2]; listed as EH IGR 7): efficacy comparable to EH 13144
- Anti-tumor effect (MCA-205 sarcoma [2]): Yes
- restoration of antibiotic-perturbed anticancer effects of CTX (MCA205 growth) (MCA-205 sarcoma [3]): efficient
- restoration of antibiotic-perturbed anticancer effects of CTX (MCA205 growth) (MCA-205 sarcoma [3]; listed as E. hirae IGR7): as efficient as E. hirae 13144
- recall responses to TMP1, TMP2 and Group7 after in vivo immunization with the strain (splenic CD8+ T cells): induce recall responses
- capacity to induce pTh17 cells in secondary lymphoid organs (pTh17 cells): significant capacity to induce pTh17 cells
- proportion of splenic TMP1-specific CTLs after immunization with the strain (tetramer) [5]: high proportion

Compound: Enterococcus hirae strain IGR11 [IGR 11]
- antitumor effect together with CTX (summary statements) (MCA-205 sarcoma [2]): efficient to mediate some tumoricidal activity
- antitumor effect together with CTX (summary statements) (MCA-205 sarcoma [2]; listed as clone IGR11): to some extent
- boost of CTX tumoricidal activity (MCA-205 tumor growth) (MCA-205 sarcoma [2]): not immunogenic
- Anti-tumor effect (MCA-205 sarcoma [2]): Yes
- restoration of antibiotic-perturbed anticancer effects of CTX (MCA205 growth) (MCA-205 sarcoma [3]): efficient
- restoration of antibiotic-perturbed anticancer effects of CTX (MCA205 growth) (MCA-205 sarcoma [3]; listed as E. hirae IGR11): as efficient as E. hirae 13144
- IL-1B and IL-12 production by BM-DC (BM-DC): as effective as EH13144
- proportion of splenic TMP1-specific CTLs after immunization with the strain (tetramer) [5]: high proportion

Compound: ILVAITTTI
- immunogenicity in humans of HLA-A0201-restricted epitopes [6]: immunogenicity of which has been experimentally confirmed

Compound: KLAKFASVV
- immunogenicity in humans of HLA-A0201-restricted epitopes [6]: immunogenicity of which has been experimentally confirmed

Compound: KMVEILEEI
- immunogenicity in humans of HLA-A0201-restricted epitopes [6]: immunogenicity of which has been experimentally confirmed

Compound: LLGIYQSYV
- immunogenicity in humans of HLA-A0201-restricted epitopes [6]: immunogenicity of which has been experimentally confirmed

Compound: RLLKYDVGV
- immunogenicity in humans of HLA-A0201-restricted epitopes [6]: immunogenicity of which has been experimentally confirmed

Compound: splenic CD8+ T cells of mice gavaged with E. hirae 13144 and treated with CTX (cells without a defined receptor)
- percentage of splenic CD8+ T cells recognising the tetramer [7]: < 1%
